“Also recorded” adds a separate entry of the source.
Columns and labels:
HIV-1 = conditions: Neidrig et al 1994; cited from earlier work
HIV-1IIIB virus [1] = assay: Peptide inhibition experiment, U937 culture; type: cell-based; conditions: peptide 200 mg/ml, RT activity in supernatant
Description: (§1) A series of overlapping p17 derived 1 5mer peptides were used. The peptides were dissolved in phosphate-buffered saline pH 7.0 and used at a final concentration of 200 mg/ml. For each peptide, 2×10^5 U937 cells were pelleted and resuspended in […] media containing […] of a stock of HIV-1IIIB virus (giving a multiplicity of infection of 0.25) and 200 mg/ml of the appropriate peptide. Following incubation for two days, the cells were pelleted and resuspended in fresh media containing peptide. After a further three days incubation, […] of the culture was removed and added to 1×10^5 C8166 cells in a total volume of […] with the appropriate peptide. Samples of both the U937 and C8166 culture supernatants were taken after a further two and three days incubation and assayed for RT activity. In addition, the C8166 cells were visually inspected for the appearance of syncytia on day three.

HIV-1IIIB virus [2] = assay: Peptide inhibition experiment, C8166 culture; type: cell-based; conditions: peptide 200 mg/ml, RT activity in supernatant
Description: as §1

Row | Substance | inhibitory activity of peptide in previous studies (HIV-1) | RT titer, U937 day 7 (HIV-1IIIB virus [1]; day 7) | RT titer, U937 day 8 (HIV-1IIIB virus [1]; day 8) | RT titer, C8166 day 2 (HIV-1IIIB virus [2]; day 2) | RT titer, C8166 day 3 (HIV-1IIIB virus [2]; day 3)
1 | 23 to 46: p17 peptide spanning residues 23 to 46 of previous studies (Neidrig et al 1994) (GGKKKYKLKHIVWASRELERFAVN; Matrix protein p17; UniProt P04591 24-47, looked up, fragment) | no inhibitory activity; also recorded: no inhibitory effect |  |  |  | 
2 | 51-65: p17-derived 15mer peptide, corresponding p17 residues 51-65 (ETSEGCRQILGQLQP; Matrix protein p17; UniProt P04591 52-66, looked up, fragment) [Mutant 51-65] |  | 14.8 × 10^3 cpm/ml | 47.0 × 10^3 cpm/ml | 19.9 × 10^3 cpm/ml | 33.6 × 10^3 cpm/ml
3 | 47 to 59: inhibitory p17 peptide spanning residues 47 to 59 of previous studies (Neidrig et al 1994) (PGLLETSEGCRQI; Matrix protein p17; UniProt P04591 48-60, looked up, fragment) | inhibitory |  |  |  | 

Reference: patent publication US6287572A, “Anti-HIV peptides and proteins” (Oxford Biomedica (UK) Limited, priority 1997, dated 2001)
